Measurements reported in patent publication US8952024B2, “Herbicidal pyrimidone derivatives” (E I du Pont de Nemours and Company, priority 2009, dated 2015).

Key:
Format in all cases: in vivo
[1] = test system: Russian thistle (Salsola kali); test: Test B pre-/postemergence plant response; conditions: Preemergence
In short: (§1)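 Compound in solvent + surfactant applied pre-em (loam/sand) or post-em (plants 2–18 cm, peat medium); greenhouse hold 13–15 days; visual 0–100 control score.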

[2] = test system: galium (catchweed bedstraw, Galium aparine); test: Test B pre-/postemergence plant response; conditions: Preemergence; for Galium plant response rating: 250 g ai/ha, 0 to 100 scale
In short: as §1

[3] = test system: nightshade (eastern black nightshade, Solanum ptycanthum); test: Test B pre-/postemergence plant response; conditions: Preemergence; for Nightshade plant response rating: 250 g ai/ha, 0 to 100 scale
In short: as §1

[4] = test system: sunflower (common oilseed sunflower, Helianthus annuus); test: Test B pre-/postemergence plant response; conditions: Preemergence; for Sunflower plant response rating: 250 g ai/ha, 0 to 100 scale
In short: as §1

[5] = test system: barnyardgrass (Echinochloa crus-galli); test: Test B flooded paddy test
In short: (§2)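 Ratings are visual, 0–100 (100 = complete control), taken versus untreated controls 13 to 15 days after treatment in the greenhouse. Compound went straight into paddy water held 3 cm above soil, applied to 2-leaf-stage plants of four species.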

[6] = test system: ducksalad (Heteranthera limosa); test: Test B flooded paddy test
In short: as §2

[7] = test system: Russian thistle (Salsola kali); test: Test D pre-/postemergence plant response
Excerpt: (§3) Seeds of plant species selected from bermudagrass (Cynodon dactylon), Surinam grass (Brachiaria decumbens), large crabgrass (Digitaria sanguinalis), green foxtail (Setaria viridis), goosegrass (Eleusine indica), johnsongrass (Sorghum halepense), kochia (Kochia scoparia), morningglory (pitted morningglory, Ipomoea lacunosa), nutsedge (purple nutsedge, Cyperus rotundus), ragweed (common ragweed, Ambrosia elatior), black mustard (Brassica nigra), guineagrass (Panicum maximum), dallisgrass (Paspalum dilatatum), barnyardgrass (Echinochloa crus-galli), sandbur (southern sandbur, Cenchrus echinatus), sowthistle (common sowthistle, Sonchus oleraceous), prickly sida (Sida spinosa), Italian ryegrass (Lolium multiflorum), purslane (common purslane, Portulaca oleracea), signalgrass (broadleaf signalgrass, Brachiaria platyphylla), groundsel (common groundsel, Senecio vulgaris), chickweed (common chickweed, Stellaria media), dayflower (Virginia (VA) dayflower, Commelina virginica), bluegrass (annual bluegrass, Poa annua), naked crabgrass (Digitaria nuda), itchgrass (Rottboellia cochinchinensis), quackgrass (Elytrigia repens), field bindweed (Convolvulus arvensis), spanishneedles (Bidens bipinnata), mallow (common mallow, Malva sylvestris) and Russian thistle (Salsola kali), were planted into a blend of loam soil and sand and treated preemergence with test chemicals formulated in a non-phytotoxic solvent mixture which included a surfactant. At the same time, plants from these weed species were treated with postemergence applications of the test chemicals formulated in the same manner. Plants ranged in height from 2 to 18 cm (1- to 4-leaf stage) for postemergence treatments.
(§4) Treated plants and controls were maintained in a greenhouse for 14 to 21 days, after which time all species were visually evaluated and compared to controls. Plant response ratings, summarized in Table D, are based on a scale of 0 to 100 where 0 is no effect and 100 is complete control. A dash (-) response means no test result.

[8] = test system: prickly sida (Sida spinosa); test: Test D pre-/postemergence plant response
Excerpt: as §3, §4

[9] = test system: purslane (common purslane, Portulaca oleracea); test: Test D pre-/postemergence plant response
Excerpt: as §3, §4

[10] = test system: ragweed (common ragweed, Ambrosia elatior); test: Test D pre-/postemergence plant response
Excerpt: as §3, §4

[11] = test system: spanishneedles (Bidens bipinnata); test: Test D pre-/postemergence plant response
Excerpt: as §3, §4

[12] = 62 g ai/ha, scale 0 to 100 (0 no effect, 100 complete control)
[13] = 125 g ai/ha, scale 0 to 100, 0 no effect, 100 complete control
[14] = 31 g ai/ha, scale 0 to 100 (0 no effect, 100 complete control)
[15] = 250 g ai/ha, flooded paddy test, visual rating on 0 to 100 scale (0 no effect, 100 complete control) after 13 to 15 days
[16] = Flood (flooded paddy test), 62 g ai/ha, scale of 0 to 100 where 0 is no effect and 100 is complete control, 13 to 15 days
[17] = Flood, 31 g ai/ha, scale 0 to 100 (0 no effect, 100 complete control)
[18] = Postemergence, 31 g ai/ha, scale 0 to 100
[19] = Postemergence, 62 g ai/ha, scale 0 to 100 (0 no effect, 100 complete control)
[20] = Postemergence, 125 g ai/ha, scale 0 to 100 (0 no effect, 100 complete control)
[21] = Postemergence, 250 g ai/ha, scale 0 to 100 (0 no effect, 100 complete control)
[22] = Preemergence, 125 g ai/ha, scale 0 to 100
[23] = Preemergence, 250 g ai/ha, scale 0 to 100
[24] = Preemergence, 62 g ai/ha, scale 0 to 100

COCCCn1c(-c2cc(F)cc(F)c2)ncc(C(=O)C2=C(O)CCCC2=O)c1=O [Compound 120]
Plant response rating, Russian Thistle [1, 12]: 80
Plant response rating, Russian Thistle [1, 13]: 80
Plant response rating, Galium [2, 14]: 80
Plant response rating, Galium [2, 12]: 90
Plant response rating, Galium [2, 13]: 95
Galium plant response rating [2]: 98
Plant response rating, Nightshade [3, 14]: 90
Plant response rating, Nightshade [3, 12]: 95
Plant response rating, Nightshade [3, 13]: 95
Nightshade plant response rating [3]: 98
Plant response rating, Sunflower [4, 14]: 45
Plant response rating, Sunflower [4, 13]: 85
Sunflower plant response rating [4]: 95
Plant response rating, Flood, Barnyardgrass [5, 15]: 65
Plant response rating, Barnyardgrass [5, 16]: 20
Plant response rating, Flood, Ducksalad [6, 15]: 85
Plant response rating, Ducksalad [6, 16]: 30

COCCn1c(-c2cc(F)cc(F)c2)ncc(C(=O)C2=C(O)C3CCC(C3)C2=O)c1=O (stereo not shown) [Compound 243, 2-(3,5-difluorophenyl)-5-[(2-hydroxy-4-oxobicyclo[3.2.1]oct-2-en-3-yl)carbonyl]-3-(2-methoxyethyl)-4(3H)-pyrimidinone]
Plant response rating, Russian Thistle [1, 14]: 100
Plant response rating, Russian Thistle [1, 12]: 100
Plant response rating, Russian Thistle [1, 13]: 100
Russian Thistle plant response rating ([1]; 250 g ai/ha, 0 to 100 scale): 100
Plant response rating, Galium [2, 14]: 85
Plant response rating, Galium [2, 12]: 90
Plant response rating, Galium [2, 13]: 98
Galium plant response rating [2]: 100
Plant response rating, Nightshade [3, 14]: 90
Plant response rating, Nightshade [3, 12]: 98
Plant response rating, Nightshade [3, 13]: 98
Nightshade plant response rating [3]: 98
Plant response rating, Sunflower [4, 14]: 80
Plant response rating, Sunflower [4, 12]: 85
Plant response rating, Sunflower [4, 13]: 95
Sunflower plant response rating [4]: 95
pest or weed control at 250 g/ha ([5]; Echinochloa crus-galli, 360 h, 250 g ai/ha, flooded paddy test, visual rating on 0 to 100 scale (0 no effect, 100 complete control) after 13 to 15 days, read-out: Plant response rating, Flood, Barnyardgrass): 85%
pest or weed control at 62 g/ha ([5]; Echinochloa crus-galli, 360 h, Flood (flooded paddy test), 62 g ai/ha, scale of 0 to 100 where 0 is no effect and 100 is complete control, 13 to 15 days, read-out: Plant response rating, Barnyardgrass): 30%
pest or weed control at 125 g/ha ([5]; Echinochloa crus-galli, 360 h, Flood (flooded paddy test), 125 g ai/ha, scale 0 to 100, 0 is no effect, 100 is complete control, 13 to 15 days, read-out: Plant response rating, Barnyardgrass): 75%
Barnyardgrass plant response rating [5, 17]: 0
Ducksalad plant response rating [6, 17]: 0
pest or weed control at 250 g/ha ([6]; Heteranthera limosa, 360 h, 250 g ai/ha, flooded paddy test, visual rating on 0 to 100 scale (0 no effect, 100 complete control) after 13 to 15 days, read-out: Plant response rating, Flood, Ducksalad): 100%
pest or weed control at 62 g/ha ([6]; Heteranthera limosa, 360 h, Flood (flooded paddy test), 62 g ai/ha, scale of 0 to 100 where 0 is no effect and 100 is complete control, 13 to 15 days, read-out: Plant response rating, Ducksalad): 85%
pest or weed control at 125 g/ha ([6]; Heteranthera limosa, 360 h, Flood (flooded paddy test), 125 g ai/ha, scale 0 to 100, 0 is no effect, 100 is complete control, 13 to 15 days, read-out: Plant response rating, Ducksalad): 100%
Plant response rating, Russian Thistle [7, 18]: 20
Plant response rating, Russian Thistle [7, 19]: 30
Plant response rating, Russian Thistle [7, 20]: 30
Plant response rating, Russian Thistle [7, 21]: 60
Plant response rating, Russian Thistle [7, 22]: 100
Plant response rating, Russian Thistle [7, 23]: 100
Plant response rating, Prickly Sida [8, 18]: 60
Plant response rating, Prickly Sida [8, 19]: 65
Plant response rating, Prickly Sida [8, 20]: 70
Plant response rating, Prickly Sida [8, 21]: 80
Plant response rating, Prickly Sida [8, 24]: 100
Plant response rating, Prickly Sida [8, 22]: 100
Plant response rating, Prickly Sida [8, 23]: 100
Plant response rating, Purslane [9, 18]: 35
Plant response rating, Purslane [9, 19]: 50
Plant response rating, Purslane [9, 20]: 50
Plant response rating, Purslane [9, 21]: 50
Plant response rating, Purslane [9, 24]: 95
Plant response rating, Purslane [9, 22]: 100
Plant response rating, Purslane [9, 23]: 100
Plant response rating, Ragweed [10, 18]: 65
Plant response rating, Ragweed [10, 19]: 70
Plant response rating, Ragweed [10, 20]: 75
Plant response rating, Ragweed [10, 21]: 75
Plant response rating, Ragweed [10, 22]: 100
Plant response rating, Ragweed [10, 23]: 100
Plant response rating, Spanishneedles [11, 18]: 60
Plant response rating, Spanishneedles [11, 19]: 65
Plant response rating, Spanishneedles [11, 20]: 70
Plant response rating, Spanishneedles [11, 21]: 70
Plant response rating, Spanishneedles [11, 22]: 100
Plant response rating, Spanishneedles [11, 23]: 100
